Tests used:
hair growth = experiment: In vivo hair generation test with C57 Black 6 mice; conditions: topical, 1 μmole per milliliter three times per week, evaluated after 14 days
Procedure: Care was taken not to nick or cause abrasion to the underlaying dermal layers. The animals were in anagen growth phase, as indicated by the pinkish color of the skin. Referring now to FIG. 2, four animals per group were treated by topical administration with 20% propylene glycol vehicle (FIG. 2), or neuroimmunophilin FKBP ligands dissolved in the vehicle. The animals were treated with vehicle or neuroimmunophilin ligands every 48 hours (3 applications total over the course of 5 days) and the hair growth was allowed to proceed for 6 weeks. Hair growth was quantitated by the percent of shaved area covered by new hair growth during this time period.
Care was taken not to nick or cause abrasion to the underlying dermal layers. Compounds at a concentration of 1 μmole per milliliter were carefully applied to the shaved area of the mice (5 mice per group) three times per week. Hair growth was evaluated 14 days after initiation of drug treatment. The relative scale for assessing hair growth is as follows: • 0=no growth; • 1=beginning of growth in small tufts; • 2=hair growth covering over <25% of shaved area; • 3=hair growth covering over >25% of shaved area, but less than 50% of shaved area; • 4=hair growth covering over >50% of shaved area, but less than 75% of shaved area; • 5=complete hair growth of shaved area.

dopaminergic neurons = experiment: MPTP model of Parkinson's Disease in mice (TH immunostaining); assay type: in vivo, CD1 white mice; conditions: Mus musculus, Neuron, po; 10 mg/kg p.o.; MPTP-lesioned mice; read-out: Post-MPTP % TH RECOVERY
Procedure: MPTP lesioning of dopaminergic neurons in mice was used as an animal model of Parkinson's Disease. Four week old male CD1 white mice were dosed i.p. with 30 mg/kg of MPTP for 5 days. […] At 18 days following MPTP treatment, the animals were sacrificed and the striata were dissected and homogenized. Immunostaining was performed on saggital and coronal brain sections using anti-tyrosine hydroxylase Ig to quantitate survival and recovery of dopaminergic neurons. In animals treated with MPTP and vehicle, a substantial loss of functional dopaminergic terminals was observed as compared to non-lesioned animals. In another protocol, test compounds were administered only subsequent to MPTP-induced lesioning. Thus, after animals were treated with MPTP for 5 days, an additional 3 days passed before beginning oral drug treatment on day 8. […] On day 18, the animals were sacrificed and analyzed as described above.
Table V presents the percent recovery of dopaminergic neurons in the first (concurrent dosing) paradigm in animals receiving carboxylic acid or carboxylic acid isostere compounds of the present invention.
Percent striatal innervation density was quantitated in brain sections with an anti-tyrosine hydroxylase immunoglobulin, which is indicative of functional dopaminergic neurons. The striatal innervation density of 23% for animals pretreated with only a vehicle and administered a vehicle orally during treatment, is indicative of normal non-lesioned striatal tissue. Striatal innervation density is reduced to 5% for animals pretreated with MPTP and administered a vehicle orally during treatment, and is indicative of MPTP-induced lesioning.

Rotamase = Rotamase (Homo sapiens, UniProt P62942); experiment: Rotamase inhibition; assay type: biochemical; conditions: read-out: K1 Rotamase
Rotamase, sequence (P62942 2-108 limits assumed): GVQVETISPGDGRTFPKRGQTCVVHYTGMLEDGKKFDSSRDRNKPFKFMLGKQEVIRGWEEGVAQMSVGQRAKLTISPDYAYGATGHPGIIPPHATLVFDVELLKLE

[1] = system: retinal ganglion cell axons; experiment: Protection of retinal ganglion cell axons 14 days after optic nerve transection (RT97); assay type: in vivo, Sprague Dawley rats; conditions: ± SEM
From the text: Efficacy of representative compounds from different immunophilin ligand series in protecting retinal ganglion cell axons from degeneration following optic nerve transection is set forth in Table VI.

[2] = system: retinal ganglion cells and optic nerve axons; experiment: Optic nerve transection: retinal ganglion cell survival, optic nerve axons and myelin 90 days after transection; assay type: in vivo, Sprague Dawley rats
From the text: Transection of the mammalian optic nerve results in a brief period of abortive regeneration, but the majority of axotomized neurons die and the axons from many persisting ganglion cells die back beyond the optic nerve head. […]
All eyes and optic nerves stumps were removed.

spatial memory = experiment: Morris watermaze spatial learning and memory in aged rodents; assay type: in vivo, C57BL/6N-Nia mice; conditions: 10 mg/kg daily, retention testing after 3 weeks of dosing; aged impaired mice
From the text: The Morris watermaze is widely used for assessing spatial memory formation and retention in experimental animals. The test depends on the animal's ability to utilize spatial visual information in order to locate a submerged escape platform in a water tank. It is important that the tank itself be as devoid of specific visual features as possible—thus, it is always circular in shape, the sides are kept smooth and in uniform dull colors, and the water is rendered opaque with nontoxic watercolour pigment or powdered milk. This is to ensure that the animal navigates only by the use of more distant visual cues, or by the use of intra-maze cues specifically provided by the experimenter. The animals' path, speed, and swim time are tracked with a ceiling camera for later computerized analysis. Over the course of several successive trials, spatial learning can therefore be defined as a drop of distance swum, or time elapsed, from placement in the tank until escape onto the invisible platform. The procedure involved using three-month old (young) and 18–19 month old male C57BL/6N-Nia (aged) mice which habituated to the well known and conventional Morris watermaze during a 4 trials/day, 3–4 day visible platform training phase. […] Swim Distances (cm) were analyzed in a 7×5 ANOVA including Groups and Blocks (1–5) as factors in the analysis, treating Blocks as a repeated measure.

retina = experiment: Streptozotocin induced diabetes: retinal neovascularization and neuron loss; assay type: in vivo; conditions: 28 day treatment beginning 8 weeks after onset of diabetes
Clearance = assay type: in vitro ADME
retinal ganglion cells = experiment: Retinal ischemia: ganglion cell, optic nerve axon and myelin degeneration; assay type: in vivo, rats
From the text: Retinal ganglion cells were retrogradely labeled in adult rats by bilateral injection of fluorogold in their lateral geniculate nuclei. Labeled ganglion cells in the normal rat retina appear as white profiles against the dark background (FIG. 4A). Complete retinal ischemia was produced by infusing normal saline solution into the retinal vitreous cavity of each eye until the intraocular pressure exceeded arterial blood pressure. 28 days after the ischemic episode extensive degeneration of retinal ganglion cell was evidenced by massive reduction in the density of fluorogold labeled cells (FIG. 4B).

[3] = 10 mg/kg/day s.c. for 28 days, 90 days after transection
[4] = treatment first 14 days, 90 days after transection
[5] = treatment first 28 days, 90 days after transection
[6] = 28 days after 1 hour retinal ischemic episode

SMILES: CCC(C)(C)C(=O)C(=O)N1CCCC[C@H]1C(N)=O [Compound 35, (2S)-1-(1,2-dioxo-3,3-dimethylpentyl)-2-aminocarbonyl piperidine]
- hair growth on shaved area (hair growth): dramatic hair growth
- percent TH recovery after MPTP at 10 mg/kg (dopaminergic neurons): 46.5%

SMILES: CCC(C)(C)C(=O)C(=O)N1CCC[C@H]1C(=O)O [Compound 137, (2S)-1-(1,2-dioxo-3,3-dimethylpentyl)-2-pyrrolidinecarboxylic acid]
- hair growth on shaved area (hair growth): dramatic hair growth
- percent TH recovery after MPTP at 10 mg/kg (dopaminergic neurons): 26.7%

SMILES: CCC(C)(C)C(=O)C(=O)N1CCSC1C(=O)OCCCc1cccnc1 (stereo not drawn) [F]
- Ki (Rotamase): 272 nM

SMILES: CCC(C)(C)C(=O)C(=O)N1CCC[C@H]1C(=O)OCCCc1cccnc1 [GPI 1046]
- RT97 + RGC axon density 14 days after ON transection (% ON axons rescued) [1]: 60.5%±3.9%SEM
- axons of protected neurons in the proximal stump [2, 3]: preserved the axons of virtually all protected neurons
- ganglion cell population spared [2, 3]: 25%
- density of large, medium and small caliber optic nerve axons ([2]; 28 day treatment): significant increase
- density of myelin, distal stump ([2]; treatment first 14 days): slightly increase the density of myelin
- shrinkage of the distal stump ([2]; treatment first 14 days): did not protect against shrinkage of the distal stump
- protection of optic nerve axons, proximal stump [2, 4]: 5.3%
- recovery in myelin density, proximal stump [2, 4]: 1.6%
- cross sectional shrinkage of the distal stump ([2]; treatment first 28 days): prevented cross sectional shrinkage
- protection of the vulnerable ganglion cell population ([2]; treatment first 28 days after transection, 90 days after transection): 12.6%
- myelin levels in distal stump, % of normal levels [2, 5]: 99%
- recovery of myelin density, proximal stump [2, 5]: 70%
- density of retinal ganglion cells that survived ([2]; treatment for 14 days, 90 days after transection): small but not significant increase
- spared retinal ganglion cells with protected optic nerve axons ([2]; treatment for 28 days, 90 days after transection): 81.4%
- spatial memory performance (retention testing, swim distance) (spatial memory): significantly enhanced spatial memory performance
- neovascularization in the PR, ONL, OPL and INL (retina): reduced neovascularization
- neuronal loss in the ONL (retina): did not appear to protect against neuronal loss in the ONL
- loss of neurons in the INL and GCL (retina; vs streptozotocin/vehicle): appeared to decrease the loss of neurons
- Clearance (Clearance): 63.8 µL/min
- protection of vulnerable ganglion cell population (retinal ganglion cells; 10 mg/kg s.c. 1 hour prior to ischemia and 10 mg/kg/day next four days, 28 days after ischemia): noticeable protection of a large proportion
- density of degenerating myelin figures (retinal ganglion cells; [6]): dramatically decreased
- optic nerve axon degeneration (retinal ganglion cells; [6]): protected the majority of optic nerve axons from degeneration
